From patent US20230295159A1, “ATX INHIBITOR, AND PREPARATION METHOD THEREFOR AND USE THEREOF” (SUZHOU ARK BIOPHARMACEUTICAL CO., LTD., priority 2020, published 2023)
Like-named read-outs stand apart in the source and are kept apart here.

Assays:
ATX enzyme = ATX enzyme (Homo sapiens (Human), UniProt Q13822); assay: ATX enzyme activity inhibition assay; type: biochemical; settings: 16:0-LPC substrate, Amplex UltraRed fluorescence
Procedure: The tested compounds were dissolved with dimethyl sulfoxide (DMSO) to prepare 20 mM of stock solutions, the stock solutions were subjected to 4-fold gradient dilutions with DMSO, with the initial concentration of 20 µM and a total of 8 concentration gradients. 20 nL of diluted compound was transferred to a 384-well plate using Echo 550 and 5 µL of ATX enzyme solution formulated with 4 × Tris-HCl reaction buffer to the well, then the 384-well plate was centrifuged at 1000 rpm for 1 min and […] pre-incubated at room temperature for 15 min. Subsequently, 5 µL of 16:0-LPC foumulated with the above 4 × reaction buffer and 10 µL of assay solution containng 2 × Amplex UltraRed reagent, choline oxidase and horseradish peroxidase (HRP) foumulated with the same reaction buffer were added to each well, then the 384-well plate was centrifugated at 1000 rpm for 1 min. The fluorescence signals were read at an excitation wavelength of 530 nm and an emission wavelength of 590 nm by Synergy 2 microplate reader. The inhibition rate of the compound against enzyme reaction was calculated according to the fluorescence intensity ratio, and IC50 of the compound was analysed and calculated by GraphPad Prism 5 software.

[1] = target: 3A4 subtype of CYP450 enzyme (Homo sapiens (Human), UniProt P08684); assay: 3A4 subtype of CYP450 enzyme time-dependent inhibition assay (IC50 shift); type: in vitro ADME; settings: both IC50 values above top concentration; testosterone substrate; read-out: IC50 against 3A4 subtype (both groups, pre-incubated with and without NADPH)
Procedure: (§1) The probe substrate was testosterone at a concentration of 50 µM. The reaction was terminated after incubation for 10 min. The IC50 of the compound against enzyme was calculated by measuring the relative yield of metabolite, and the IC50 shift was calculated from the IC50 results of the groups pre-incubated with and without addition of NADPH.

hERG potassium channel = hERG potassium channel (Homo sapiens (Human), UniProt Q12809); assay: hERG inhibition assay (manual whole-cell patch clamp); type: cell-based; settings: hERG tail current, stable transfected cell line
Procedure: Rapid activation of human delayed rectifier potassium current (IKr) is mainly mediated by hERG ion channel and participates in repolarization of human cardiomyocytes. Blocking this current with drugs will lead to QT interval prolongation syndrome in clinical practice, which will easily induce acute arrhythmia and even sudden death.
Experimental method: a whole-cell patch clamp technique was used to record hERG current. The cell suspension was added to a small petri dish and placed on an inverted microscope stage. After adherence, the cells were perfused with extracellular fluid at a recommended flow rate of 1-2 mL/min. The glass microelectrode was drawn by a microelectrode drawing instrument in two steps, and the resistance thereof after filling the electrode interior liquid was 2-5 MΩ. After the whole-cell recording mode was set up, the clamping potential was maintained at -80 mV. The depolarization voltage was applied to +60 mV for 850 ms, and then repolarized to -50 mV for 1275 ms to induce hERG tail current. Such a set of pulse programming was repeated every 15 seconds throughout the experiment. After the current was stable, the drug was administered by extracellular continuous perfusion from low concentration to high concentration. Starting from low concentration, perfusion continued until the drug effect was stable, then perfusion at the next concentration was performed. In this experiment, the blocking effect on hERG tail current was tested for the test objects at different concentrations and the positive control (N ≥ 2). Then, stimulus generation and signal acquisition were carried out by PatchMaster software; and a signal was amplified with a patch clamp amplifier. FitMaster, EXCEL, Graphpad Prism, SPSS 21.0, etc. were used for further data analysis and curve fitting. In data processing, when determining the blocking effect on hERG, the peak and baseline of tail current were calibrated. The inhibition rate (IR) of tail current was used to express the effect of the compounds at different concentrations.
IR = 100% × (peak of tail current before administration - peak of tail current after administration)/peak of tail current before administration.
IC50 was obtained by fitting the Hill equation (if applicable), if the maximum inhibition rate of the test object at all concentrations was less than 50%, then IC50 was not calculated. [00500]

[2] = Rat pharmacokinetic study; type: in vivo, SD rat; settings: for F: PO 10 mg/kg vs IV 2 mg/kg; for AUC(0-inf) / AUC(0-t) / Cmax / half-life / Tmax: SD, plasma; for half-life: read-out: t½ (converted)
Procedure: SD rat pharmacokinetic study was performed on several compounds in Examples of the present disclosure through a single intravenous injection (IV, at a dose of 2 mg/kg) and a single oral administration (PO, at a dose of 10 mg/kg), and blood samples were taken before administration and 5 min, 15 min, 30 min, 1 h, 2 h, 4 h, 8 h, 12 h and 24 h after administration, respectively, to determine the plasma concentration of the compound for assay. The pharmacokinetic data of control compound and the compounds in Examples 17, 26, 28 and 29 of the present disclosure in rat plasma are shown in Tables 4-8.

CYP3A4 = CYP3A4 (Homo sapiens (Human), UniProt P08684); assay: 3A4 subtype of CYP450 enzyme time-dependent inhibition assay (IC50 shift); type: in vitro ADME; settings: probe testosterone, 50 µM; 30 min pre-incubation with vs without NADPH, testosterone substrate, human liver microsomes
Procedure: as §1

[3] = tested on: Chinese hamster ovary cells (CHO-WBL); assay: In vitro micronucleus assay with Chinese hamster ovary cells
Procedure: In the major micronucleus assay, CHO-WBL cells were exposed to at least 3 concentrations of the test object, while vehicle control group and positive control group were set up, with 2 replicated wells for each dose group. In inactivated test system, the administration lasted for 3 and 24 hours, and in S9 activated test system, the exposure to the test object lasted for 3 hours.
When choosing the highest dose for micronucleus frequency assay, the cytotoxicity of dose group of the test object should not substantially exceed 50% of that of the corresponding vehicle control group.
On the premise that the test is valid, the test results are evaluated according to the following criteria:
If the test object simutaneously meets the following criteria, it can be considered as positive:
A significant increase in micronucleus frequency is observed in one or more concentration groups.
If none of the above three points is met, the test object can be considered as negative.

Sequence of hERG potassium channel (Q12809 whole entry): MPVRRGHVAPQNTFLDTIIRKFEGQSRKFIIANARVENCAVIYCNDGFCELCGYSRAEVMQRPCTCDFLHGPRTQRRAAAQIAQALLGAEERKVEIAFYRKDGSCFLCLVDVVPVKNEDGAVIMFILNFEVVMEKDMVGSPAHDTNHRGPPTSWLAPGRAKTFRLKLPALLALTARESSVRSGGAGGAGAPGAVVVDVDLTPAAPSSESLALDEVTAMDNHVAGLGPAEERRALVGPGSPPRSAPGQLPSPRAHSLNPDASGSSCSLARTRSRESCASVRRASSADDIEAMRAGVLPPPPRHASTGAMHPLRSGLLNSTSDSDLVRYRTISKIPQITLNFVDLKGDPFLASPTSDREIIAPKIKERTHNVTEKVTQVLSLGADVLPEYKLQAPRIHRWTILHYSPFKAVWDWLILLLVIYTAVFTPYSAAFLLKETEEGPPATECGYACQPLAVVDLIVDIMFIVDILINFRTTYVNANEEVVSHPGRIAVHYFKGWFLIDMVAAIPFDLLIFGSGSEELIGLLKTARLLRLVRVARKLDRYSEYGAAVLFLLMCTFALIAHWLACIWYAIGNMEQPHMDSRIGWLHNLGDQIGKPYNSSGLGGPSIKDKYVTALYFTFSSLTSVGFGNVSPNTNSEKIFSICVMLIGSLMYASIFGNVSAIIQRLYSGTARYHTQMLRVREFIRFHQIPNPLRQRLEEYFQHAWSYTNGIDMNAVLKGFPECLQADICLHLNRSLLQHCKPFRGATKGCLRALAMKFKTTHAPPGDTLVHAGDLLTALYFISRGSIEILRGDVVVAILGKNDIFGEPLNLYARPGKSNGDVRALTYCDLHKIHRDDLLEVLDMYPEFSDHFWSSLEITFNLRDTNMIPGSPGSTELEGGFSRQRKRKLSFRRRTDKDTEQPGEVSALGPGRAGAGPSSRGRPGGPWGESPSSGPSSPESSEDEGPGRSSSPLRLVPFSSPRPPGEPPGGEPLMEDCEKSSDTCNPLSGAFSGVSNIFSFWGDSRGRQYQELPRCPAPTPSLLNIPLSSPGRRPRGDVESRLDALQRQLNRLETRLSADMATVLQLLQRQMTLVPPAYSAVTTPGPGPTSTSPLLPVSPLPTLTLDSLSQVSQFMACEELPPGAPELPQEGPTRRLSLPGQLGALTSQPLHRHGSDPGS
Sequence of 3A4 subtype of CYP450 enzyme (P08684 whole entry): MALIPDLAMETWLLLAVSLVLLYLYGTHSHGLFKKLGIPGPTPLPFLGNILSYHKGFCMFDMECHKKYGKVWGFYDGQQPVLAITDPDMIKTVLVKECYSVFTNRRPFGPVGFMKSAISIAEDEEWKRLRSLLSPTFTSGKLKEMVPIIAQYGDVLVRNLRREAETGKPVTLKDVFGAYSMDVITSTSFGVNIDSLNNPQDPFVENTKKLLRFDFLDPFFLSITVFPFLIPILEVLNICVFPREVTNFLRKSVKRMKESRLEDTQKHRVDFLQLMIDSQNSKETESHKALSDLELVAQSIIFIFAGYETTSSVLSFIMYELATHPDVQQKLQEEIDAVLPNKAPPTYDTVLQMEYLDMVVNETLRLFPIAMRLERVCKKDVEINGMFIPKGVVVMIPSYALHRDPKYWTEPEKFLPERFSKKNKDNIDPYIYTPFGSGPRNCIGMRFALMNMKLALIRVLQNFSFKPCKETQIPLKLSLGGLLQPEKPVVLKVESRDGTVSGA
Sequence of CYP3A4 (P08684 whole entry): as above

IC50 (ATX enzyme) | IC50 [1] | Cl_F_pred ([2]; IV 2 mg/kg) | Cl_F_pred ([2]; PO 10 mg/kg) | F [2] | AUC(0-inf) ([2]; IV 2 mg/kg) | AUC(0-t) ([2]; IV 2 mg/kg) | Cmax ([2]; IV 2 mg/kg) | half-life ([2]; IV 2 mg/kg) | AUC(0-inf) ([2]; PO 10 mg/kg) | AUC(0-t) ([2]; PO 10 mg/kg) | Cmax ([2]; PO 10 mg/kg) | Tmax ([2]; PO 10 mg/kg) | half-life ([2]; PO 10 mg/kg) | SMILES | IC50 (hERG potassium channel) | also measured
11 nM | > 100 µM |  |  |  |  |  |  |  |  |  |  |  |  | CCN(c1nc(-c2ccc(F)cc2)c(C#N)s1)c1c2nc(-c3cnc(N4CC(O)C4)nc3)ccc2nn1CC [Example 23, 2-(ethyl(2-ethyl-5-(2-(3-hydroxyazetidin-1-yl)pyrimidin-5-yl)-2H-pyrazolo[4,3-b]pyridin-3-yl)amino)-4-(4-fluorophenyl)thiazole-5-carbonitrile] |  | 
7.4 nM | > 100 µM | 0.43 L/h/kg | 1.09 L/h/kg | 38.5% | 4720 ng·h/mL | 4680 ng·h/mL | 2540 ng/mL | 240 min | 9180 ng·h/mL | 9030 ng·h/mL | 1030 ng/mL | 4 h | 222 min | CCN(c1nc(-c2ccc(F)cc2)c(C#N)s1)c1c2nc(-c3cnc(N4CCCS4(=O)=O)nc3)ccc2nn1CC [Example 17, 2-((5-(2-(1,1-dioxidoisothiazolidin-2-yl)pyrimidin-5-yl)-2-ethyl-2H-pyrazolo[4,3-b]pyridin-3-yl)(ethyl)amino)-4-(4-fluorophenyl)thiazole-5-carbonitrile] | > 30 µM | 
5.5 nM |  | 0.25 L/h/kg | 1.5 L/h/kg | 16.6% | 8170 ng·h/mL | 7500 ng·h/mL | 3070 ng/mL | 558 min | 6720 ng·h/mL | 6230 ng·h/mL | 663 ng/mL | 4 h | 348 min | CCN(c1nc(-c2ccc(F)cc2)c(C#N)s1)c1c2nc(-c3cnc(N4CCC(O)CC4)nc3)ccc2nn1CC [Example 26, 2-(ethyl(2-ethyl-5-(2-(4-hydroxypiperidin-1-yl)pyrimidin-5-yl)-2H-pyrazolo[4,3-b]pyridin-3-yl)amino)-4-(4-fluorophenyl)thiazole-5-carbonitrile] | > 30 µM | IC50 shift at 10 min (CYP3A4): 1.09; % binuclear cells containing micronucleus ([3]; 3-hour administration with metabolic activation, 3 µg/ml): 1.65%; % binuclear cells containing micronucleus ([3]; 3-hour administration with metabolic activation, 6 µg/ml): 1.65%; % binuclear cells containing micronucleus ([3]; 3-hour administration with metabolic activation, 12 µg/ml): 1.75%; % binuclear cells containing micronucleus ([3]; 3-hour administration with metabolic activation, 20 µg/ml): 1.60%; % binuclear cells containing micronucleus ([3]; 3-hour administration without metabolic activation, 3 µg/ml): 1.85%; % binuclear cells containing micronucleus ([3]; 3-hour administration without metabolic activation, 6 µg/ml): 1.80%; % binuclear cells containing micronucleus ([3]; 3-hour administration without metabolic activation, 12 µg/ml): 1.70%; % binuclear cells containing micronucleus ([3]; 3-hour administration without metabolic activation, 25 µg/ml): 1.50%; % binuclear cells containing micronucleus ([3]; 24-hour administration without metabolic activation, 1 µg/ml): 1.90%; % binuclear cells containing micronucleus ([3]; 24-hour administration without metabolic activation, 3 µg/ml): 1.65%; % binuclear cells containing micronucleus ([3]; 24-hour administration without metabolic activation, 6 µg/ml): 1.85%; % binuclear cells containing micronucleus ([3]; 24-hour administration without metabolic activation, 9 µg/ml): 1.80%; potential to induce micronucleus formation in CHO-WBL cells ([3]; overall verdict over all administration series): negative
23 nM | > 100 µM | 0.29 L/h/kg | 1.1 L/h/kg | 11.2% | 7220 ng·h/mL | 6840 ng·h/mL | 3480 ng/mL | 492 min | 9150 ng·h/mL | 7780 ng·h/mL | 847 ng/mL | 3.3 h | 552 min | CCN(c1nc(-c2ccc(F)cc2)c(C#N)s1)c1c2nc(-c3cnc(N4CCOCC4)nc3)ccc2nn1CC [Example 29, 2-(ethyl(2-ethyl-5-(2-morpholinopyrimidin-5-yl)-2H-pyrazolo[4,3-b]pyridin-3-yl)amino)-4-(4-fluorophenyl)thiazole-5-carbonitrile] | > 30 µM | 
